Assay results taken from ChEMBL document CHEMBL1144127, “Montadial A, a cytotoxic metabolite from Bondarzewia montana” (J Nat Prod, 1999).
The source made the active and inactive calls.

What was measured:
HL-60 = assay: Cytotoxicity against human HL-60 cells at 5 ug/mL; format: functional, cell-based
L1210 = assay: Cytotoxicity against mouse L1210 cells at 10 ug/mL; format: functional, cell-based
Setaria italica = assay: Phytotoxicity against Setaria italica at 50 ug/disk; format: functional, organism-based

Measured: Activity

C/C(C=O)=C\Cc1cc(C=O)cc(O)c1O
active: HL-60 | L1210 | Setaria italica
